Measured values from patent publication US20200323986A1, “HYDROPHOBIC ARENESULFONATE SALTS” (Theracaine LLC, priority 2017, published 2020).

Experiments:
[1] = Pharmacokinetics of caine anesthetic salt particles after a single subcutaneous dose (plasma drug concentration versus time); settings: rat; for initial spike in bupivacaine plasma concentration: single subcutaneous dose, 650 μm particles in PEG200, Groups 1 and 2; for delivery of lidocaine over time (plasma lidocaine concentration versus time) / initial spike in plasma lidocaine concentration: in vivo, sc
Protocol: (§1) The test articles are drug compositions consisting of B-4BrBSA-650, B-35BrBSA-650, L-4BrBSA-650, and L-35BrBSA-650 particles in a polyethylene glycol 200 vehicle (PEG200; Sigma-Aldrich, polyethylene glycol 200 Bioultra). The test articles were prepared by adding a volume of […] to an appropriate weighed amount of test article in a vial, gently mixed, and then applied uniformly via a single subcutaneous dose via incision on the dorsum of female Sprague Dawley rats.
(§2) Doses were administered via an incision on the dorsal region, as a subcutaneous liquid application (suspension of powder). Each test article was administered at an amount determined by each animal's weight using the calculated mg per kg-bw (bodyweight) as shown in the table below.
(§3) The vehicle was provided as a liquid in an individual container. […] A volume of 100 μL of vehicle was added to each individual dose, allowed to soak, and shaken occasionally to uniformly mix the particles with the PEG200.
(§4) For all groups, the test article suspension was applied to the subcutaneum using a plastic spatula. The test article was distributed as evenly as possible. Incisions were closed with staples, and the animals allowed to recover. All animals received analgesia and antibiotic treatment.
(§5) Cage side observations were performed daily.

[2] = Clinical (cage side) observations and body weight after a single subcutaneous dose; settings: rat; for tolerability as administered (summary): particles in PEG200, 114/134/161/193 mg/kg-bw (Groups 1-4)
Protocol: as §1, §2, §3, §4, §5

[3] = Gross evaluation of dose sites and general gross necropsy at study termination; type: in vivo, female Sprague Dawley rats; settings: rat
Protocol: Sigma-Aldrich, polyethylene glycol 200 Bioultra). […] The test article was distributed as evenly as possible. […] All animals received analgesia and antibiotic treatment. Cage side observations were performed daily.

[4] = animals that lost weight, over the course of the study
[5] = five animals per group, single subcutaneous dose
[6] = group average, single subcutaneous dose
[7] = at study termination (after 96 h sampling)

| SMILES | initial spike in bupivacaine plasma concentration ([1]; FIGS. 1-2) | weight loss [2, 4] | animals that lost weight over the course of the study [2, 5] | group mean body weight change at the end of the study [2, 6] | tolerability as administered (summary) ([2]; single subcutaneous dose) | encapsulation at dose site ([3]; at study termination) | other dose site findings (hematoma, unknown material) ([3]; at study termination) | vascularization surrounding the incision sites (dose site observation) ([3]; at study termination) | residual test article visible at dose site [3, 7] | delivery of lidocaine over time (plasma lidocaine concentration versus time) [1] | initial spike in plasma lidocaine concentration [1] | weight loss ([2]; in vivo) | animals that lost weight over the course of the study ([2]; in vivo, sc) | group mean body weight change at the end of the study ([2]; in vivo, sc) | residual test article visible at dose site ([3]; in vivo) | vascularization surrounding the incision sites (dose site observation) ([3]; in vivo) | also measured |
| --- | --- | --- | --- | --- | --- | --- | --- | --- | --- | --- | --- | --- | --- | --- | --- | --- | --- |
| CCCCN1CCCCC1C(=O)Nc1c(C)cccc1C.O=S(=O)(O)c1ccc(Br)cc1 (centres unmarked) [Example B-4BrBSA-650, Bupivacaine 4-bromobenzenesulfonate salt] | initial spike in bupivacaine plasma concentration exhibited by test article 1 | less than 5 % total body weight | two out of five | 4 gram | well tolerated | No additional encapsulation or residual test article was visible | Hematomas were present in Animals #2 and #4, with encapsulation of clotted blood in Animal #4 | very slight to slight vascularization | No additional encapsulation or residual test article was visible |  |  |  |  |  |  |  |  |
| CCN(CC)CC(=O)Nc1c(C)cccc1C.Cc1c(Br)cc(S(=O)(=O)O)cc1Br [L-35BrBSA-650, Lidocaine 3,5-dibromo-4-methybenzenesulfonate salt] |  |  |  |  | well tolerated |  |  |  |  | at least 24 hours | avoids the initial spike in plasma lidocaine concentration | less than 5 % total body weight | two out of five | 1 gram | No residual test article or encapsulation was visible | very slight to moderate vascularization | encapsulation at dose site ([3]; in vivo): No residual test article or encapsulation was visible |
| CCN(CC)CC(=O)Nc1c(C)cccc1C.O=S(=O)(O)c1ccc(Br)cc1 [Example L-4BrBSA-650, Lidocaine 4-bromobenzenesulfonate salt] |  |  |  |  |  |  |  |  |  | at least 24 hours | initial spike in plasma lidocaine concentration exhibited by test article 3 | less than 5 % total body weight | four out of five | −1 gram | No residual test article was visible | moderate to severe vascularization | survival ([2]; single subcutaneous dose, to scheduled euthanasia (96 h study)): all animals survived until scheduled euthanasia; encapsulation size at dose site ([3]; in vivo): 0.5-3 cm; other dose site findings (hematoma, unknown material) ([3]; in vivo): Areas of an unknown brown material were present in Animal #13 |
| CCCCN1CCCCC1C(=O)Nc1c(C)cccc1C.Cc1c(Br)cc(S(=O)(=O)O)cc1Br (centres unmarked) [B-35BrBSA-650, Bupivacaine 3,5-dibromo-4-methybenzenesulfonate salt] | without the initial spike in bupivacaine plasma concentration | less than 5 % total body weight | two out of five | 1 gram | well tolerated | No encapsulation was present | A small hematoma was present in Animal #7 | very slight to slight vascularization | Small areas of residual test article were visible at or near the incision site in all animals |  |  |  |  |  |  |  | duration of delivery of bupivacaine (plasma bupivacaine concentration versus time) ([1]; single subcutaneous dose via dorsal incision, 650 μm particles in 100 μL PEG200, 114 (Group 1) / 134 (Group 2) mg/kg-bw, plasma to 96 h, FIGS. 1-2): greater duration of delivery of bupivacaine compared to test article 1 |
